Results published in patent US20230103774A1, “USE OF KAURANE COMPOUNDS IN PREPARATION OF DRUG FOR PREVENTION AND TREATMENT OF SEPSIS AND MULTIPLE ORGAN DAMAGE” (KEY-PHARMA BIOMEDICAL INC., priority 2020, published 2023).
Entries after “also recorded” stand apart in the source; their conditions may differ.

Legend:
mitochondria = assay: mitochondrial protection during sepsis; settings: administration during sepsis
[1] = test system: primary peritoneal macrophages; assay: flow cytometry of M1/M2 primary peritoneal macrophages of LPS induced septic mice; type: in vivo; settings: 6 hours after 20 mg/kg LPS i.p., versus LPS group
Experimental: This example illustrates the effect of compound A on macrophage polarization. • (1) Grouping of experimental animals: 6-8 week old Balb/c male mice were randomly divided into 4 groups after one week of adaptive feeding, 10 mice in each group, namely the Control group, the LPS group, the compound A group and the dexamethasone group. The LPS group, compound A group and dexamethasone group were given intraperitoneally injection of a 20 mg/kg of LPS. […]

HIF-1α = HIF-1α expression after LPS and macrophage regulation
[2] = test system: macrophage M1 and M2 in cardiac tissue; assay: ROS and M1/M2 macrophages in heart of septic mice; type: in vivo
LPS-induced septic mice [3] = assay: cardiac function of LPS-induced septic mice by echocardiography (Vevo2100); type: in vivo; settings: for ejection fraction (EF) / fractional shortening (FS): 6 h after i.p. LPS, versus LPS group
Source text: Six hours after intraperitoneal injection of LPS, mice in each group were weighed and anesthetized, and the cardiac function of the mice was detected by Vevo2100 imaging system. The mice were put into the recumbent position and fixed on a constant temperature heating plate under heart rate of 400-500 times per minute. The limbs were fixed on the four metal poles with tape. The ultrasound probe was placed in the left thoracic region of the mouse, and the short axis of the parasternal left ventricle was obtained by 2D ultrasound. The left ventricular motion was recorded at the papillary muscle level by M-ultrasound, and heart rate (HR), left ventricular systolic diameter (LVID: FS), left ventricular diastolic diameter (LVID: d), left ventricular systolic diameter (LVID: FS), left ventricular diastolic diameter (LVID: Fd), and left ventricular diastolic […] thickness (LVPWF: FdF) were measured. Using Vevo2100 small animal ultrasound system software to process and analyze the acquired images. Determination of mouse plasma myocardial injury indexes (LDH and CK)
Ejection Fractions (EF), refers to the percentage of cardiac stroke volume in ventricular end-diastolic volume, which is an indicator of myocardial contractility. […] The left ventricular short-axis shortening rate (fractional shortening, FS) refers to the ratio of the inner diameter of the ventricle at the end systole to the inner diameter of the ventricular end diastole, and also reflects the systolic function of the heart (FS=(left ventricular end-diastolic diameter (LVDd)−Left ventricular end-systolic diameter (LVDs))/left ventricular end-diastolic diameter×100%).

[4] = test system: LPS-induced septic Balb/C mice; assay: mortality of LPS-induced septic Balb/C mice after intraperitoneal compound A; type: in vivo; settings: for improved the survival rate of mice: P<0.01
Experimental: This example mainly observes the effect of intraperitoneal injection of different doses of Compound A on the mortality of LPS-septic Balb/C mice.
To observe the effect of intraperitoneal injection of different doses of compound A on the mortality of LPS-induced sepsis mice.
The mice were randomly divided into 6 groups: • (1) Control group: intraperitoneal injection of physiological saline (solvent) (0.1 ml/10 g) once a day for three consecutive days, 1 hour after intraperitoneal injection on the third day, intraperitoneal injection of physiological saline (0.2 ml/10 g); • (2) LPS group: intraperitoneal injection of saline (0.1 ml/10 g), 1 time/d for 3 consecutive days, 1 hour after intraperitoneal injection on the third day, intraperitoneal injection of LPS (20 mg/kg, 0.1 ml/10 g). • (3) Compound A (5 mg/kg)+LPS group: intraperitoneal injection of compound A (5 mg/kg, 0.1 ml/10 g), 1 time/d for 3 consecutive days, 1 hour after intraperitoneal injection on the third day, intraperitoneal injection LPS (20 mg/kg, 0.1 ml/10 g). • (4) Compound A (10 mg/kg)+LPS group: intraperitoneal injection of compound A (10 mg/kg, 0.1 ml/10 g), 1 time/d for 3 consecutive days, 1 hour after intraperitoneal injection on the third day, intraperitoneal injection LPS (20 mg/kg, 0.1 ml/10 g). • (5) Compound A (20 mg/kg)+LPS group: intraperitoneal injection of compound A (20 mg/kg, 0.1 ml/10 g), 1 time/d for 3 consecutive days, 1 hour after intraperitoneal injection on the third day, intraperitoneal injection LPS (20 mg/kg, 0.1 ml/10 g). • (6) Compound A (60 mg/kg)+LPS group: intraperitoneal injection of compound A (60 mg/kg, 0.1 ml/10 g), 1 time/d for 3 consecutive days, 1 hour after intraperitoneal injection on the third day, intraperitoneal injection LPS (20 mg/kg, 0.1 ml/10 g).
After intraperitoneal injection of LPS, the survival of mice in each group was observed every 12 h for six consecutive days.
Based on the previously reports, the dose of 5 mg/kg for adults is an acceptable and safe dose, and the maximum blood concentration reaches 20 μM, which is equivalent to 45 mg/kg in mice. Accordingly, 10 mg/kg STV-Na was employed for further studies.

LPS-induced septic mice [5] = assay: renal function of LPS-induced septic mice (plasma BUN, Crea, histopathology); type: in vivo
Source text: The prepared plasma of each group was taken to determine the levels of urea nitrogen (BUN) and creatinine (Crea) in plasma by a microplate reader following the manufacture's instruction.

[6] = dose of 5 mg/kg for adults; cited from earlier work
septic lung tissues = assay: acute lung injury caused by sepsis (lung tissue, blood oxygen saturation); type: in vivo; settings: septic mice
LPS-induced septic mice [7] = assay: liver function of LPS-induced septic mice (plasma ALT, AST, SOD, histopathology); type: in vivo
Source text: The prepared plasma of each group was taken to determine the levels of alanine aminotransferase (ALT), aspartate aminotransferase (AST) and superoxide dismutase (SOD) in plasma by a microplate reader according to the manufacture's instruction.

[8] = test system: Animals that survived sepsis; assay: fibrosis of affected organs after recovery from sepsis; type: in vivo
solubility = type: physicochemical; settings: sodium salt versus compound A
[9] = test system: LPS-induced lung injury mice; assay: lung function by whole body plethysmography (Penh, EF50, TV); type: in vivo
Experimental: The lung function of each group of mice was measured at 6 h. Mice were placed in a closed chamber of a whole body plethysmograph (BUXCO, USA), and the plethysmographic chamber was connected to a sensor. […] In this experiment, we used Buxco's pulmonary function testing system to measure and record the 50% tidal expiratory volume, tidal volume, and changes in airway responsiveness in each group of mice by whole body plethysmography to assess lung function. This method offers a real-time lung function of mice under non-invasive conditions. Penh is a pulmonary function parameter related to airway resistance and intrapleural pressure, and Penh is used as an index to evaluate airway response.

[10] = test system: white blood cells, neutrophils and monocytes; assay: white blood cells, neutrophils and monocytes in LPS induced septic mice; type: in vivo; settings: versus LPS group
[11] = test system: lactate dehydrogenase (LDH) and creatine kinase (CK) in plasma; assay: plasma myocardial injury indexes LDH and CK; type: in vivo; settings: LPS-induced septic mice, versus LPS group, p<0.01
Experimental: Serum lactate dehydrogenase (LDH) and creatine kinase (CK) were determined according to the istructions provided by Nanjing Jiancheng Biotechnology Co., Ltd.

TNF-α, IL-6 and IL-1β = assay: pro-inflammatory cytokine expression in plasma of septic mice; type: in vivo; settings: 6 h after intraperitoneal injection of LPS; different doses
[12] = under certain conditions in vitro; cited from earlier work
LPS-induced septic mice [13] = assay: spleen/body weight ratio after LPS; type: in vivo; settings: even lower than that of the Control group
Experimental: The fur color, consciousness, physical activity, diet, etc. of the mice were observed, and the heart, liver, spleen, lung and kidney of the mice were weighed 6 hours after intraperitoneal injection of LPS.

[14] = pretreated septic mice versus LPS group
[15] = 6 hours after LPS injection, versus LPS group, p<0.01

C[C@@]12CC[C@@H]3[C@@](CC[C@H]4[C@@]3(C)CCC[C@@]4(C)C(=O)O)(CC1=O)C2 [Compound A, (4α, 8β, 13 β)-13-METHYL-16-OXO-17-Norkauran-18-OIC acid]
cytochrome C release (mitochondria): reduce | inflammation cytokine TNF-α and IL-1β (mitochondria): inhibiting | mitochondrial membrane potential (mitochondria): increase | number of mitochondria (mitochondria): increase | production of superoxide such as NO in cells (mitochondria): reduce | M1 peritoneal macrophages (F4/80+CD11c+ CD206−) [1]: significantly inhibit; also recorded: significantly reduced | M2 peritoneal macrophages (F4/80+CD11c− CD206+) [1]: significantly inhibit; also recorded: significantly reduced | HIF-1α expression (HIF-1α; after LPS injection): reduced | metabolic regulation effect on macrophages (HIF-1α; with DMOG, a competitive inhibitor of HIF-1α prolyl hydroxylase): abolished | level of ROS in heart [2]: inhibited | biomarkers of M1 and M2 macrophages and number of macrophages in cardiac tissue ([2]; M1: IL-1β, McP1, CD11c, M2: Ym1, CD206): significantly decreased | ejection fraction (EF) (LPS-induced septic mice [3]): significantly improved | fractional shortening (FS) (LPS-induced septic mice [3]): significantly higher | ejection fraction (EF) (LPS-induced septic mice [3]; listed as STV-Na): markedly increased | fractional shortening (FS) (LPS-induced septic mice [3]; listed as STV-Na): markedly increased | CO (LPS-induced septic mice [3]; [14]): markedly increased | SV (LPS-induced septic mice [3]; [14]): markedly increased | survival of mice ([4]; 5 mg/kg i.p. 1 time/d for 3 days, then LPS 20 mg/kg i.p., no significant difference with the LPS group (p>0.05)): all mice in the 5 mg/kg compound A group died | improved the survival rate of mice ([4]; 10 mg/kg i.p. 1 time/d for 3 days, then LPS 20 mg/kg i.p.): 52% | improved the survival rate of mice ([4]; 20 mg/kg i.p. 1 time/d for 3 days, then LPS 20 mg/kg i.p.): 67% | survival rate of mice ([4]; 10-20 mg/kg, large dose of LPS i.p., up to more than two-thirds surviving): significantly improved | creatinine (Crea) in plasma (LPS-induced septic mice [5]; LPS-induced septic mice): significantly reduced | urea nitrogen (BUN) in plasma (LPS-induced septic mice [5]; LPS-induced septic mice): significantly decreased | urea nitrogen (BUN) in plasma (LPS-induced septic mice [5]; LPS-induced septic mice, listed as compound A): significantly reduced | lesions in the glomerulus and renal tubules (histopathological staining) (LPS-induced septic mice [5]; septic animals): milder than those in the model group | maximum blood concentration [6]: 20 µM | blood oxygen saturation (septic lung tissues): significantly increased | lung function / acute lung injury and failure caused by sepsis (septic lung tissues): significantly recovered | lung inflammation (septic lung tissues): significantly reduced | lung tissue structure (septic lung tissues): basically normal | alanine aminotransferase (ALT) in plasma (LPS-induced septic mice [7]; LPS-induced septic mice): significantly decreased | aspartate aminotransferase (AST) in plasma (LPS-induced septic mice [7]; LPS-induced septic mice): significantly decreased | superoxide dismutase (SOD) in plasma (LPS-induced septic mice [7]; LPS-induced septic mice): significantly decreased | infiltration of inflammatory cells in liver (histopathological staining) (LPS-induced septic mice [7]; septic animals): reduced | fibrosis and collagen deposition in the lungs, heart, liver, and kidney [8]: marked reduction | solubility (solubility): better solubility | EF50 (expiratory flow at 50% tidal volume) [9, 15]: significantly higher | TV (tidal volume) [9, 15]: significantly higher | airway reactivity (Penh) ([9]; septic mice): returned to normal | level of white blood cells, neutrophils and monocytes [10]: significantly reduced | CK level in plasma [11]: significantly decreased | LDH level in plasma [11]: downward trend | LDH level in plasma ([11]; listed as STV-Na): significantly decreased | TNF-α, IL-1β and IL-6 in plasma (TNF-α, IL-6 and IL-1β): dose-dependently decreased

C=C1C[C@@]23CC[C@H]4[C@@](C)(CCC[C@@]4(C)C(=O)O)[C@@H]2CC[C@]1(O)C3 [Compound B, ENT13Hyrdoxyaur-16-EN-18-Oic acid]
mutagenicity [12]: mutagenic

C[C@@H]1C[C@H]2[C@@H]3CCC4=CC(=O)C=C[C@]4(C)[C@@]3(F)[C@@H](O)C[C@]2(C)[C@@]1(O)C(=O)CO [dexamethasone]
spleen/body weight ratio (LPS-induced septic mice [13]): significantly reduced
